“Also recorded” adds a separate entry of the source.
Experiments:
[1] = system: P RNA; assay: Gel-based activity assay, bipartite pre-tRNA substrate, P RNA alone; format: biochemical, T. maritima; details: 100 mM AmOAc, 10 mM MgCl2
Procedure: For gel-based activity assays, reactions were prepared as described in the previous section (fluorescence activity assay), incubated for 1–15 min at 37–50°C, then loaded onto a denaturing 7 M urea–20% acrylamide gel in the case of the Mh substrate or 19% acrylamide (40% acrylamide/bisacrylamide 38.5:1.5) for the bipartite pre-tRNA substrate. The activity conditions for the gel reported in Figure 3A, to monitor the cleavage of the holoenzyme and P RNA, were under 100 mM AmOAc and 10 mM MgCl2. The gels (13 × 16 × 0.15 cm) were electrophoresed at 20 V/cm for 2–3 h. UV shadowing or ethidium bromide staining was used to visualize RNA cleavage. Detection of minihelix fluorescence was achieved without staining using a UV lamp with excitation at ∼254 nm.
Figure 3. The inhibitors purpurin and hematein bind to the holoenzyme. (A) Top. […] Bottom. […] (B) The relative affinities of the inhibitors for the P RNA or the holoenzyme differ. Binding sensorgrams obtained by biolayer interferometry (BLI). P RNA or RNase P holoenzyme was immobilized on super streptavidin (SSA) biosensors through a 5′-biotinylated RNA oligonucleotide complementary to a region on the P1 stem of P RNA (see Materials and Methods). […] In contrast, gentian violet binds not only to P RNA but also to the Mh substrate (Supplementary Figure S16). (C) Molecular Dynamics (MD) simulations of RNase P protein in complex with the validated inhibitors. In each panel, semitransparent spheres represent the geometric center, over a 200 ns trajectory, of the corresponding tested compound. The 5′-leader (yellow) is shown for reference purposes only; it was not included in the simulation. Sphere color coding indicates the starting and final positions in blue and red, respectively. […] Purpurin's starting conformation corresponds to that observed in the crystal structure in complex with the P protein (PDB code: 6MAX. See Figure 5).

[2] = target: minihelix (Mh); assay: Biolayer interferometry binding to biotinylated minihelix substrate; details: BLI
Procedure: 3′-Biotinylated minihelix was purchased from Integrated DNA Technologies (IDT) (24-mer RNA sequence, 5′-[…]-3′-Biotin). The biotinylated minihelix was immobilized on Super Streptavidin (SSA) biosensors at a concentration of 10 μM. […] For the titration experiments, 10 μM of 3′-biotinylated minihelix was immobilized for 300 s on Super Streptavidin (SSA) biosensors, followed by a wash step of 100 s and association and dissociation steps of 200 s in the presence of 6 different concentrations of compound ranging from 500 to 15.6 μM. SSA biosensors with no minihelix were used to measure non-specific binding of compounds. All other parameters (buffer, instrument control, analysis) are as described above.
Supplementary Figure 16. Binding assays monitor the interaction of compounds with the minihelix (Mh). Gentian violet and methylene blue bind in a dose-dependent relationship to the artificial minihelix substrate. […]
interaction between the minihelix and (A) gentian violet (KD=8 µM ) and (B) methylene blue A 3′-biotinylated substrate minihelix at 10 µ M was immobilized on super streptavidin (SSA) biosensors for 300 s.
Supplementary Figure 17. pre-tRNA displaces bound purpurin in a dose-response […]
indicating a true competition between purpurin and pre-tRNA binding sites. […]

[3] = system: P RNA; assay: Biolayer interferometry binding to immobilized P RNA; set-up: species or system T. maritima; details: BLI, P RNA on SSA biosensors via biotinylated oligonucleotide
Procedure: (§1) Real-time binding assays of the holoenzyme, P RNA, P protein, the substrate minihelix and the 5′-leader to individual compounds were performed by biolayer interferometry using an Octet RED96 system (ForteBio). For the holoenzyme or P RNA, a 5′ biotinylated RNA oligonucleotide with the sequence 5′biotin-CAUUCCAGACGAU was immobilized on Super Streptavidin (SSA) biosensors. Then, a modified P RNA or holoenzyme was added. The P RNA modification consisted of a sequence with part of the P1 stem sequence complementary to the biotinylated oligonucleotide (AUCGUCUGGA) (Supplementary Figure S23A). P1 is far from the active site or other regions involved in specific interactions (Supplementary Figure S23B) ([19]). The activity of this construct was indistinguishable from the wild-type holoenzyme. Alternatively, the holoenzyme was immobilized through the His-tagged P protein from T. maritima at 0.05 mg/ml (3.4 μM) on Ni-NTA biosensors. Control biosensors were used to subtract non-specific binding of compounds to the biosensor surface. All assay steps (immobilization, wash, baseline, association, and dissociation) were performed in 20 mM HEPES pH 7.4, 100 mM ammonium acetate, 10 mM MgCl2, 2.5% DMSO. The assays were performed on black bottom 96-well microplates (Greiner Bio-One 655209) in a total volume of 200 μl, at 30°C with orbital shaking at 1000 rpm. Experiments were controlled with the software Data Acquisition 8.2 (ForteBio, Inc.). Kinetic binding parameters were calculated using Data Analysis 8.2 (ForteBio, Inc.). After subtraction of reference biosensors, the binding curves were aligned to the X- and Y-axis and the association-dissociation inter-step curve in order to get a common baseline for the association and dissociation phases.
Figure 3. The inhibitors purpurin and hematein bind to the holoenzyme. (A) Top. […] Bottom. […] (B) The relative affinities of the inhibitors for the P RNA or the holoenzyme differ. Binding sensorgrams obtained by biolayer interferometry (BLI). […]

[4] = target: T1, P protein (Thermotoga maritima, UniProt Q9X1H4); assay: Binding hindrance of the 5′ RNA leader to the P protein (BLI); set-up: species or system T. maritima; details: compound 100 μM, 5′ RNA leader 5 μM
T1 construct: GST (cleaved yes); made in house; host or cells: E. coli BL21(DE3)pLysS
T1 sequence (Q9X1H4 1-117): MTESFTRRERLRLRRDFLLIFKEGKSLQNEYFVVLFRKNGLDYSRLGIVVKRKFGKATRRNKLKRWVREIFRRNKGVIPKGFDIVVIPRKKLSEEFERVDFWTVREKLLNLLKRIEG
Procedure: A 5′ RNA leader sequence with 10-bases 5′-GGAAAAAGAU-3′ was purchased from IDT and used at a concentration of 5 μM. This sequence is the same used to obtain the crystal structure of the RNase P holoenzyme ([19]). The His-tagged P protein was immobilized on Ni-NTA biosensors at 0.05 mg/ml (3.4 μM). […] The steps performed on the assay and their periods were: P protein immobilization (400 s), wash (100 s), baseline […] (1000 rpm), compound association (800 s), compound dissociation (200 s) (500 rpm), baseline (100 s), 5′ leader association (200 s), 5′ leader dissociation (200 s) (1000 rpm). The assay was performed at 30°C. The compounds were used at 100 μM throughout. All assay steps were performed in 20 mM HEPES pH 7.4, 100 mM ammonium acetate, 10 mM MgCl2, 5% DMSO.
5 ′ RNA leader. (A) Experimental design of 5′ RNA leader binding hindrance experiments. Figures B-F are based on the analysis region depicted in panel A, where association and dissociation of the 5′ RNA leader to the P protein (TmP) is measured over time. P protein at 3.5 µM was immobilized on Ni-NTA biosensors for 300 s, while compounds were assayed at 100 µM and the […]
binding, in contrast with hematein (E) and purpurin (F).
(1 picture or pasted object on this page, not shown here)

[5] = target: T2, RNase P holoenzyme (Thermotoga maritima, UniProt Q9X1H4); assay: Displacement of pre-tRNA from the holoenzyme (BLI); format: binding, T. maritima; details: holoenzyme on Ni-NTA biosensors, compound 0–400 μM, then pre-tRNA
T2 construct: GST (cleaved yes); made in house; host or cells: E. coli BL21(DE3)pLysS
T2 sequence (Q9X1H4 1-117): T1 sequence (Q9X1H4 1-117)
Procedure: as §1
Figure 4. Characterization of the inhibition of T. maritima RNase P by purpurin. (A) Best global fit for inhibition of RNase P in the presence of varying concentrations of fluorescent Mh substrate. […] Symbols represent the mean ± standard error as determined from three independent experiments at each concentration. See also Supplementary Figure S18. […] Binding sensorgrams obtained by biolayer interferometry (BLI). RNase P holoenzyme at 400 nM was immobilized on Ni-NTA. […] Binding sensorgrams obtained by biolayer interferometry (BLI). RNase P holoenzyme was immobilized on Ni-NTA biosensors, incubated with purpurin at varying concentrations (0–400 μM), and then the association and dissociation pre-tRNA was monitored. […] See also Supplementary Figure S17.

[6] = target: T3, RNase P holoenzyme from Thermotoga maritima (Thermotoga maritima, UniProt Q9X1H4); assay: Real-time fluorescence-based (FRET) RNase P activity assay with minihelix (Mh) substrate; format: biochemical
T3 construct: made in house
T3 sequence (Q9X1H4 1-117): T1 sequence (Q9X1H4 1-117)
Procedure: The reconstitution of the RNase P holoenzyme was performed as described in ([40],[19]). This protocol produces a homogeneous and functional ribozyme that can be crystallized by mixing P RNA and P protein in a 1:1.1 molar ratio in 1× TH buffer (33 mM Tris–HCl, 66 mM HEPES, pH 7.4) and 400 mM ammonium acetate (AmOAc). The mixture was heated to 95°C for 2 min in a water bath, then chilled on ice for 2 min, after which MgCl2 was added to a final concentration of 100 mM. […] This higher concentration was used in all experiments described herein. The holoenzyme was further incubated at 50°C for 10 min and 37°C for 40 min. The final concentration of holoenzyme was 333 nM (35.6 μg/ml of P RNA and 4.7 μg/ml of P protein).
The minihelix (Mh) substrate (Figure 1A) was adopted from a previously characterized RNase P substrate, pMini3bpUG ([32],[33]) and coupled to either Black Hole Quencher 1 (BHQ1) or Black Hole Quencher 2 (BHQ2) at the 5′-end and Alexa Fluor 488 at the 3′-end. This probe was purchased either from Sigma-Aldrich or Integrated DNA Technologies (IDT). A requested scale of […] yielded between 6.3 and 20 nmol (57.5 to 181 μg, enough for 1300–4000 reactions depending on the experimental substrate concentration). Before use, the minihelix was diluted from a 100 μM stock (dissolved in water) to 3.6 μM in activity buffer H (33 mM Tris–HCl, 66 mM HEPES, pH 7.4, 400 mM AmOAc and 100 mM MgCl2).
Reactions were performed in a total volume of 20 μl. Pipetting was done by hand using multichannel pipettes. First, an 18 μl reaction mixture containing 16.5 μl of activity buffer (H for Mh or L supplemented with 10% PEG 200 for bipartite pre-tRNA) and 270 nM (Mh) or 135 nM (bipartite pre-tRNA) (1.5 or 0.7 μl of the 3.6 μM stock) of the fluorescent substrate probe was pre-incubated on ice for at least 5 m in a black polystyrene 384-well microtiter microplate with a flat transparent bottom (Corning ref 3540). The holoenzyme was then added at a final concentration of 33 nM (2 μl of a 333 nM stock) in 1× TH buffer and mixed. Kinetic activity was monitored in a Synergy MX Multimode Detector (BioTek) at 37°C with rapid agitation. At least 20 readings were taken per well every 15 s. The probe was excited at 485 nm, and its emission was monitored at 535 nm with an integration time of 1 s. From the plots of relative fluorescent units (RFU) versus time, linear regression was used to determine the slopes in the linear portion of the curves, using at least 12 data points to obtain initial velocities. Non-linear fitting to obtain the Michaelis–Menten parameters was performed using GraphPad Prism® 6.01 software.
Supplementary Figure 3. FRET assays of RNase P with the fluorescent substrate are reproducible. (A) Representative plots of kinetic assays performed in a single run. The standard assay (SA), (+), was performed at 37° C in a total volume of 20 µL and contained RNase P holoenzyme at 33 nM, substrate minihelix (Mh) at 270 nM, 10% DMSO and activity buffer (AB).
The negative control assay (-) contained 100 mM CaCl2 in place of MgCl2. Ten to twelve wells were monitored simultaneously in a typical assay. (B) Zoomed view of the linear region of the kinetic assays shown in panel A. Fluorescence readings were performed every 15-20 seconds.
Linear regression calculations were done using the GraphPad Prism 7 software. (C) The coefficient Z’-factor (1) was used as an indicator of reproducibility and was calculated based on the relative fluorescence units (RFU) in the plateau phase (taken at 20 minutes). The Z’-factor has a […]
presented in this work were either measured in triplicate or confirmed in subsequent assays. (D) […]
assay is robust. The IC50 values reported in Figures 1C and 2 were calculated according to this kinetic parameter. There is a negative drift in fluorescence in the case of the negative control.
However, it should be noted that the mean value of it (-279) is much smaller than the signal of the […]
positive control (3397). […]

[7] = system: RNase P from E. coli; set-up: method as in PMID 24097434; details: cited from earlier work
[8] = target: T4, RNase P protein (TmP, P protein) (Thermotoga maritima, UniProt Q9X1H4 1-117); assay: BLI; details: BLI (Octet RED96): 20 mM HEPES pH 7.4, 100 mM ammonium acetate, 10 mM MgCl2, 2.5-5% DMSO, 30 C; P protein:P RNA in 33 mM Tris, 66.6 mM HEPES, 200 mM ammonium …
T4 sequence: T1 sequence (Q9X1H4 1-117)

CN(C)c1ccc([C+](c2ccc(N(C)C)cc2)c2ccc(N(C)C)cc2)cc1.[Cl-] [Gentian violet, tris(4-(dimethylamino)phenyl)methylium chloride, reference compound]
Inhibition of the P RNA reaction [1]: inhibits the reaction via P RNA | Kd ([2]; 3′-biotinylated minihelix 10 μM on SSA biosensors): 8000 nM | Binding to the minihelix substrate ([2]; initial screening at 1 mM and titration): binding signal; also recorded: binds to the biotinylated minihelix substrate in the micromolar range | Binding to P RNA [3]: binds more strongly to it | Hindrance of 5′ RNA leader binding to the P protein [4]: did not interfere with RNA leader | Hindrance of 5′ RNA leader binding to the P protein ([4]; listed as gentian violet): do not impede the leader binding | Dose–response displacement of pre-tRNA [5]: No

Mh: 24-nucleotide minihelix RNase P model substrate with 5′ Black Hole Quencher and 3′ Alexa Fluor 488 (GAUCUGAAUGCGGAAACGCGCCAC; 5' BHQ quencher, 3' Alexa Fluor 488, further chemistry not given here)
kcat ([6]; Michaelis–Menten fit): 0.112 s⁻¹ | Km ([6]; holoenzyme 11 nM, Michaelis-Menten fit): 1.3 µM | kobs (previously reported) [7]: 0.86 min⁻¹ | Kd ([7]; read-out: KD (previously reported)): 2800 nM

P RNA
Kd [8]: 0.5 nM

Reference: paper PMC6614837 (Nucleic Acids Research, 2019)
